These results are taken from patent US8614324B2, “Filamin A binding anti-inflammatory and analgesic” (priority 2008, dated 2013).

Each structure is given as a SMILES string.

The target of the assay is T1, mu opiate receptor (MOR) (Rattus norvegicus, UniProt P33535).
T1 construct: from tissue; host or cells: striatal membrane preparation (rat striatum)
In words: MOR agonist activity, [35S]GTPγS binding assay using striatal membranes. The format is biochemical. The arrangement: MOR agonist activity, [35S]GTPγS binding to Gαo: reference not given here. Here is the method: To assess the mu opiate receptor (MOR) agonist activity of positive compounds from the FLNA screening, compounds were tested in a [^35S]GTPγS binding assay using striatal membranes.
Striatal tissue was homogenized in 10 volumes of ice cold 25 mM HEPES buffer, pH 7.4, which contained 1 mM EGTA, 100 mM sucrose, 50 μg/ml leupeptin, 0.04 mM PMSF, 2 μg/ml soybean trypsin inhibitor and 0.2% 2-mercaptoethanol. The homogenates were centrifuged at 800×g for 5 minutes and the supernatants were centrifuged at 49,000×g for 20 minutes. The resulting pellets were suspended in 10 volume of reaction buffer, which contained 25 mM HEPES, pH 7.5, 100 mM NaCl, 50 μg/ml leupeptin, 2 μg/ml soybean trypsin inhibitor, 0.04 mM PMSF and 0.02% […].
The resultant striatal membrane preparation (200 μg) was admixed and maintained (incubated) at 30° C. for 5 minutes in reaction buffer as above that additionally contained 1 mM MgCl2 and 0.5 nM [^35S]GTPγS (0.1 μCi/assay, PerkinElmer Life and Analytical Sciences) in a total volume of 250 μl and continued for 5 minutes in the absence or presence of 0.1-10 μM of an assayed compound of interest. The reaction was terminated by dilution with 750 μl of ice-cold reaction buffer that contained 20 mM MgCl2 and 1 mM EGTA and immediate centrifugation at 16,000×g for 5 minutes.
The resulting pellet was solubilized by sonicating for 10 seconds in 0.5 ml of immunoprecipitation buffer containing 0.5% digitonin, 0.2% sodium cholate and 0.5% NP-40. Normal rabbit serum (1 μl) was added to 1 ml of lysate and incubated at 25° C. for 30 minutes. Nonspecific immune complexes were removed by incubation with 25 μl of protein A/G-conjugated agarose beads at 25° C. for 30 minutes followed by centrifugation at 5,000×g at 4° C. for 5 minutes. The supernatant was divided and separately incubated at 25° C. for 30 minutes with antibodies raised against Gαo proteins (1:1,000 dilutions).
The immunocomplexes so formed were collected by incubation at 25° C. for 30 minutes with 40 μl of agarose-conjugated protein A/G beads and centrifugation at 5,000×g at 4° C. for 5 minutes. The pellet was washed and suspended in buffer containing 50 mM Tris-HCl, pH 8.0, and 1% NP-40. The radioactivity in the suspension was determined by liquid scintillation spectrometry. […] DAMGO (H-Tyr-D-Ala-Gly-N-MePhe-Gly-OH; 1 or 10 μM) was used as a positive control.
In general terms: Binding of GTPγS marks nucleotide exchange on a G protein.

Setting [1] is: 0.1 μM compound, striatal membranes.
The mark [2] stands for this setting: 1 μM compound + BFNA (1 μM β-funaltrexamine).
The mark [3] stands for this setting: 1 μM compound, striatal membranes.

T1 sequence (P33535 whole entry): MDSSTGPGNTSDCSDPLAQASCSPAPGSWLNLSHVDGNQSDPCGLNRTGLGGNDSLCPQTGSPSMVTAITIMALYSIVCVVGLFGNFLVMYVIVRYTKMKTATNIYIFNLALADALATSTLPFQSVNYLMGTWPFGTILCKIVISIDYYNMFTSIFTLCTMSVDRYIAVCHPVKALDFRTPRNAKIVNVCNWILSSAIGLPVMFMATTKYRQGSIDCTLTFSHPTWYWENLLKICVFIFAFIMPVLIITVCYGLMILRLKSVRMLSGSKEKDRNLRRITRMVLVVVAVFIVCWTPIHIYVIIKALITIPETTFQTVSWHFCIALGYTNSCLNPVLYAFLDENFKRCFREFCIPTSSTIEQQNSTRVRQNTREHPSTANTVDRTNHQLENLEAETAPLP

In the case of `O=C1CN(C2CCc3ccccc3C2)C2(CCN(S(=O)(=O)c3ccccc3)CC2)N1` (stereo not drawn) [C0136M(P5)], the “MOR agonist activity, [35S]GTPγS binding to Gαo” value (from here on “MOR agonist activity”) by setting is: under setting [1], 176.8%; under setting [2], 74.5%; under setting [3], 237.3%.
As for `O=C1CN(Cc2ccccc2)C2(CCN(C3CCCCC3)CC2)N1` [C0137M(P7)], the “MOR agonist activity” value came to 180.8% under setting [1], 55.8% under setting [2] and 193.8% under setting [3].
For `COc1ccc(S(=O)(=O)N2CCC3(CC2)NCCO3)cc1` [Compound C0026] the same measures were 207.2%, 21.2% and 288.4%.
In the case of `COc1ccc(S(=O)(=O)N2CCOC23CCNCC3)cc1` [Compound C0027], the “MOR agonist activity” value under setting [1] is given as 233.2%; the “MOR agonist activity” value under setting [2] is 72.2%; the “MOR agonist activity” value under setting [3] is given as 313.9%.
Turning to `O=[N+]([O-])c1ccc(S(=O)(=O)N2CCC3(CC2)NCCO3)cc1` [Compound C0040], the “MOR agonist activity” value is 145.8% under setting [1], 90.4% under setting [2] and 308.3% under setting [3].
For `O=[N+]([O-])c1ccc(S(=O)(=O)N2CCC3(CC2)NCCS3)cc1` [Compound C0044] the same measures were 173.7%, 59.1% and 280.1%.
For `CC(=O)c1ccc(S(=O)(=O)N2CCOC23CCNCC3)cc1` [Compound C0046], the “MOR agonist activity” value by setting is: under setting [1], 286.2%; under setting [2], 156.8%; under setting [3], 492.9%.
Consider `CC(=O)N1CCSC12CCN(S(=O)(=O)c1ccc([N+](=O)[O-])cc1)CC2` [Compound C0050], for which the “MOR agonist activity” value is, setting by setting: under setting [1], 110.3%; under setting [2], 59.0%; under setting [3], 127.6%.
On to `CC(=O)c1ccc(S(=O)(=O)N2CCC3(CC2)OCCN3S(C)(=O)=O)cc1` [Compound C0056], for which the “MOR agonist activity” value was found to be 98.6% under setting [1], 86.3% under setting [2] and 193.4% under setting [3].
In the case of `CC(=O)c1ccc(S(=O)(=O)N2CCC3(CC2)NCCS3)cc1` [Compound C0060], the “MOR agonist activity” value is, setting by setting: under setting [1], 166.5%; under setting [2], 143.9%; under setting [3], 218.9%.
Take `CC(=O)c1ccc(S(=O)(=O)N2CC(=O)NC23CCNCC3)cc1` [Compound C0086M]: the “MOR agonist activity” value turned out to be 206.8% under setting [1], 152.3% under setting [2] and 265.3% under setting [3].
Consider `CC(=O)c1ccc(S(=O)(=O)N2CCC3(CC2)NC(=O)CO3)cc1` [Compound C0087M], for which the “MOR agonist activity” value under setting [1] came out at 262.8%; the “MOR agonist activity” value under setting [2] is 142.5%; the “MOR agonist activity” value under setting [3] was 329.6%.
On to `COc1ccc(S(=O)(=O)N2CCOC23CCN(C)CC3)cc1` [Compound C0088M], for which the “MOR agonist activity” value under setting [1] came out at 276.3%; the “MOR agonist activity” value under setting [2] is 177.1%; the “MOR agonist activity” value under setting [3] is 355.3%.
`CCN1CCC2(CC1)OCCN2S(=O)(=O)c1ccc(OC)cc1` [Compound C0089M]: the “MOR agonist activity” value is recorded as 234.5% under setting [1], 81.9% under setting [2] and 295.3% under setting [3].
For `COc1ccc(S(=O)(=O)N2CCOC23CCN(CC2CC2)CC3)cc1` [Compound C0090M] the same measures were 237.0%, 41.0% and 341.0%.
`C=CCN1CCC2(CC1)OCCN2S(=O)(=O)c1ccc(OC)cc1` [Compound C0091M]: the “MOR agonist activity” value was 207.9% under setting [1], 80.8% under setting [2] and 274.4% under setting [3].
On to `CC(=O)c1ccc(S(=O)(=O)N2CCOC23CCN(C)CC3)cc1` [Compound C0093M], for which the “MOR agonist activity” value runs as follows: under setting [1], 140.0%; under setting [2], 44.0%; under setting [3], 211.8%.
With `CCN1CCC2(CC1)OCCN2S(=O)(=O)c1ccc(C(C)=O)cc1` [Compound C0094M], the “MOR agonist activity” value under setting [1] was found to be 172.5%; the “MOR agonist activity” value under setting [2] is on record as 115.3%; the “MOR agonist activity” value under setting [3] is listed as 263.5%.
For the compound `CC(=O)c1ccc(S(=O)(=O)N2CCOC23CCN(CC2CC2)CC3)cc1` [Compound C0095M], the “MOR agonist activity” value came out at 189.1% under setting [1], 107.7% under setting [2] and 224.6% under setting [3].
Take `C=CCN1CCC2(CC1)OCCN2S(=O)(=O)c1ccc(C(C)=O)cc1` [Compound C0096M]: the “MOR agonist activity” value runs as follows: under setting [1], 186.4%; under setting [2], 127.1%; under setting [3], 328.9%.
The corresponding values for `CCOC(=O)CN1CCC2(CC1)OCCN2S(=O)(=O)c1ccc(C(C)=O)cc1` [Compound C0099M] are 157.2%, 114.7% and 195.7%.
In the case of `CC(=O)c1ccc(S(=O)(=O)N2CCOC23CCN(CC(=O)O)CC3)cc1` [Compound C0100M], the “MOR agonist activity” value is, setting by setting: under setting [1], 173.6%; under setting [2], 195.6%; under setting [3], 245.9%.
Take `CCCCN1CCC2(CC1)OCCN2S(=O)(=O)c1ccc(C(C)=O)cc1` [Compound C0101M]: the “MOR agonist activity” value reads like this: under setting [1], 138.2%; under setting [2], 174.8%; under setting [3], 274.3%.
The corresponding values for `CCCCN1CCC2(CC1)OCCN2S(=O)(=O)c1ccc(OC)cc1` [Compound C0102M] are 131.8%, 150.4% and 272.0%.
On to `CN1CCC2(CC1)NC(=O)CN2Cc1ccccc1` [Compound C0104M], for which the “MOR agonist activity” value was 188.2% under setting [1], 143.8% under setting [2] and 238.9% under setting [3].
For the compound `CN1CCC2(CC1)NCC(=O)N2Cc1ccccc1` [Compound C0105M], the “MOR agonist activity” value by setting is: under setting [1], 198.1%; under setting [2], 73.1%; under setting [3], 220.3%.
The corresponding values for `CN1CCC2(CC1)OCCN2S(=O)(=O)c1ccc(S(C)(=O)=O)cc1` [Compound C0106M] are 171.8%, 117.2% and 240.7%.
As for `CC(=O)c1ccc(S(=O)(=O)N2CC(CN(C)C)OC23CCN(C)CC3)cc1` (stereo not drawn) [Compound C0108M], the “MOR agonist activity” value came out at 205.6% under setting [1], 76.9% under setting [2] and 258.5% under setting [3].
With `O=C1CNC2(CCNCC2)N1Cc1ccccc1` [Compound C0114M], the “MOR agonist activity” value under setting [1] is 114.0%; the “MOR agonist activity” value under setting [2] worked out at 35.9%; the “MOR agonist activity” value under setting [3] is listed as 144.3%.
For `O=C1CN(Cc2ccccc2)C2(CCNCC2)N1` [Compound C0115M], the “MOR agonist activity” value under setting [1] was determined as 177.2%; the “MOR agonist activity” value under setting [2] stood at 118.4%; the “MOR agonist activity” value under setting [3] was 226.8%.
